Laboratory results as given in patent publication US20090247520A1, “INHIBITORS OF ANTIGEN RECEPTOR-INDUCED NF-kappa B ACTIVATION” (The Burnham Institute for Medical Research, priority 2008, published 2009).
Read-outs that look alike come from different tables or passages of the source.

How the values were obtained:
TLK1 = target: T1, TLK1 (Homo sapiens, UniProt Q9UKI8); assay: KINOMEscan competition binding assay, TLK1
T1 construct: proprietary tag (Ambit); purchased Ambit, Inc
Description: (§1) CID-2858522 is not a potent protein kinase inhibitor. Protein kinases play critical roles in NF-κB activation. PKCs are proximal kinases in the NF-κB pathways activated by PMA/Ionomycin and by T- and B-cell antigen receptors, while the IKKs are distal kinases operating in the terminal segments of these and other NF-κB activation pathways. We therefore tested whether CID-2858522 inhibits members of these kinase families by in vitro kinase assays. For these experiments, we tested PKC-beta and PKC-theta (the PKC family members implicated in TCR/BCR signaling), and IKK-beta (a component of the IKK complex) (FIG. 6). […] In addition to assessing these three kinases by conventional in vitro kinase assays, a kinome screen was performed using a high throughput screening method, KINOMEscan™, which is an active-site dependent competition binding assay in which human kinases of interest are fused to a proprietary tag (Ambit). The amount of kinase bound to an immobilized, active-site directed ligand is measured in the presence and absence of the test compound. […] Thus, CID-2858522 inhibits none of the protein kinases previously implicated in regulating NF-κB.
(§2) In Vitro Kinase Assays. PKC-beta, PKC-theta and IKK-beta in vitro kinase assays were performed using the HTScan Kinase Assay Kit (Cell Signaling, Danvers, Mass.) according to manufacturer's protocols. […]

JAK2 = target: T2, JAK2 (Homo sapiens, UniProt O60674); assay: KINOMEscan competition binding assay, JAK2
T2 construct: proprietary tag (Ambit); purchased Ambit, Inc
Description: as §1, §2

[1] = system: PDB-induced NF-κB reporter gene activity; assay: PDBu-induced NF-κB reporter gene activity in HEK293 cells; assay type: cell-based; settings: Homo sapiens
Experimental: (A) Structures of two hit compounds, CID-2858522 (left) and CID-2998237 (right) are shown; (B, C) 293-NF-κB-luc cells were pretreated for 2 hrs with various concentration of either CID-2858522 (B) or CID-29982387 (C) and then stimulated with TNF (10 ng/mL) or PMA/lonomycin (10 ng/mL; 5 ng/mL) for 16 h. Luciferase activity was measured and data were expressed as a percentage relative to control treatment with DMSO only (mean±SD; n=3). (D) 293-NF-κB-luc cells were pretreated for 2 h with various concentrations of CID-2858522 or CID-2998237, then stimulated with PMA/lonomycin for 16 h. IL-8 release into the medium was measured, expressing data as a percentage relative to control cultures treated with DMSO (mean±SD; n=3). (E) 293-NF-κB-luc cells were pretreated with CID-2858522 and then stimulated with PDBu for 16 h, IL-8 production and NF-κB luciferase activity were measured as above. (F) 293-NF-κB-luc cells were pretreated for 2 h with various concentrations of CID-2858522 or a PKC inhibitor (Bisindolylmaleimide I) at 1 μM followed by PMA/Ionomycin (10 ng/mL) stimulation for 2 h, then p65-DNA-binding activity was measured in nuclear extracts (10 μg protein), expressing data as fold-increase relative to unstimulated cells (mean±SD; n=3).
HTS. […] Plates were analyzed within 30 seconds with a Criterion Analyst™ using the luminescence method (0.1 second read/well).

p65-DNA binding activity = p65-DNA binding activity in anti-IgM-stimulated CLL B-cells; assay type: cell-based; settings: human CLL B-cells
Experimental: (A) Isolated mouse primary splenocytes were cultured with anti-CD3/anti-CD28 (0.3 μg/mL each) or anti-IgM (3 μg/mL) for 48 h, then 1 μCi 3H-Thymidine was added for 12 h and incorporation into DNA was measured, expressing data as fold increase above unstimulated cells (mean±SD; n=3). (B-D) Primary splenocytes were pretreated for 2 h with IKK inhibitor, BMS-335541 (B), PKC inhibitor, Bisindolylmaleimide I (C) or CID-2858522 (D), then stimulated with anti-CD3/anti-CD28 (0.3 μg/mL) or anti-IgM (3 μg/mL) for 48 h. 1 μCi 3H-Thymidine was added for 12 h and incorporation into DNA was measured, expressing data as percent inhibition relative to control cells treated with DMSO (mean±SD; n=3). […] Levels of TRAF1 and β-actin were assessed by immunoblotting, quantified by densitometry and TRAF1 results reported relative to control cells, after normalization for β-actin (mean±SD). […] Then nuclear extracts were prepared and p65-DNA-binding activity was measured (mean±SD; n=3).
NF-κB DNA-binding activity assays. Nuclear extracts were prepared from 10 cm^2 plates of confluent cells using a kit (Active Motif, Carsbad, Calif.). The total protein content of nuclear fractions was quantified by the Bradford method, followed by storage at −80° C. […]

T1 sequence (Q9UKI8 whole entry): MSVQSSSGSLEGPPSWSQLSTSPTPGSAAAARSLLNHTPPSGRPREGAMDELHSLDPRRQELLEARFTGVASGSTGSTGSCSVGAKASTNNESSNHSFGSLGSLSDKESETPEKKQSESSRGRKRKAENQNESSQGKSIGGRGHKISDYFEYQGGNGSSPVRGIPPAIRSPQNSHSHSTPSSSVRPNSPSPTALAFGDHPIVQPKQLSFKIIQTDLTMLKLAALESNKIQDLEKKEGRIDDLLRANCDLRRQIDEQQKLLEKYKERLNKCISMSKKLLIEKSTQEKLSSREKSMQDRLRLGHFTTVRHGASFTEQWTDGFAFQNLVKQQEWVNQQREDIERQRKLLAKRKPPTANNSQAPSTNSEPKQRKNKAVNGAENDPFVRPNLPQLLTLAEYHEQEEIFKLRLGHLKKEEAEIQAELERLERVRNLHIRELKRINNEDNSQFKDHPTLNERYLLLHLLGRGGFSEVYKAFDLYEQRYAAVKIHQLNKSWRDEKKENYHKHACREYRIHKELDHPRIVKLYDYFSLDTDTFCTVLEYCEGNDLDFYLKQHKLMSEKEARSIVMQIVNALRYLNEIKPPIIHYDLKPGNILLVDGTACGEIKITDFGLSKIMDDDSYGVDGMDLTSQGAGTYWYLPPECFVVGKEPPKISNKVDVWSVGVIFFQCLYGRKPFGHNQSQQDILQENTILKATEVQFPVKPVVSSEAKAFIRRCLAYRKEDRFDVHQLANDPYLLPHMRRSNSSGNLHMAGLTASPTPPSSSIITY
T2 sequence (O60674 whole entry): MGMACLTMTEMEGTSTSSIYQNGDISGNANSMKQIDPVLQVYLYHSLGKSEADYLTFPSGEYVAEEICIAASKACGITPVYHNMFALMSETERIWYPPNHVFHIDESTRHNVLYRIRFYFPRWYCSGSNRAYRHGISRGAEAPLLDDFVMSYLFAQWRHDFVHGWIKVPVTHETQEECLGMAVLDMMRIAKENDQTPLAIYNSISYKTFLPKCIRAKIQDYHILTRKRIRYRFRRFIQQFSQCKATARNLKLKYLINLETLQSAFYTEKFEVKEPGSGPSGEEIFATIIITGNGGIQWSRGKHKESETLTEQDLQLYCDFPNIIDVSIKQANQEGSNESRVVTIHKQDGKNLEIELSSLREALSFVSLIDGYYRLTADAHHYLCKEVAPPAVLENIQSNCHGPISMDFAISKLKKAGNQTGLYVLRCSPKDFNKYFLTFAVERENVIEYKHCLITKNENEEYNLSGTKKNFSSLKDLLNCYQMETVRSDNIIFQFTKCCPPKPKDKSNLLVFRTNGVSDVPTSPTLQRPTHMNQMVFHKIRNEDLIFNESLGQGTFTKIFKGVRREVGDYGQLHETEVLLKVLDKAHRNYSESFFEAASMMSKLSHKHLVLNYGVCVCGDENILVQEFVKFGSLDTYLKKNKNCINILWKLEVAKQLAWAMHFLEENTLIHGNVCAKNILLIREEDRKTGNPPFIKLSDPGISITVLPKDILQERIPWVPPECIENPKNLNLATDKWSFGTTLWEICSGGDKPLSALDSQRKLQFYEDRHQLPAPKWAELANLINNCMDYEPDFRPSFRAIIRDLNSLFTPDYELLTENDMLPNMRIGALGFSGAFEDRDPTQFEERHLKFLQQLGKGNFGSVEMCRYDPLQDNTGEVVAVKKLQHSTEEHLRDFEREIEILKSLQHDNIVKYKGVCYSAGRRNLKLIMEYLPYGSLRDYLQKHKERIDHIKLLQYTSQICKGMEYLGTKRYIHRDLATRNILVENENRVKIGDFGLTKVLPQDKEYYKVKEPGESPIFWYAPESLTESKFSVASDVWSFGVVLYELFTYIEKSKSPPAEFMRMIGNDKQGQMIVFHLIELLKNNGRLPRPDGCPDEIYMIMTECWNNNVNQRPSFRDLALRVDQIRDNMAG

SMILES: Cc1cc2nc(NCCCO)n(CC(=O)c3cc(C(C)(C)C)c(O)c(C(C)(C)C)c3)c2cc1C [Compound 1, 2-(2-(3-Hydroxypropylamino)-5,6-dimethyl-1H-benzo[d]imidazol-1-yl)-1-(3,5-di-tert-butyl-4-hydroxyphenyl)ethanone]
- inhibition at 10 µM (TLK1): 70%
- inhibition at 10 µM (JAK2): 53%
- IC50 ([1]; read-out: IC50, PDB-induced NF-κB reporter gene activity): 70 nM
- IC50 ([1]; read-out: IC50, PDBu-induced NF-κB reporter gene assay (cellular potency)): < 100 nM
- suppression of anti-IgM-induced p65-DNA binding activity (p65-DNA binding activity): direct suppression
